13 compounds from patent US10000488B2, “Heterocyclic compound” (TAKEDA PHARMACEUTICAL COMPANY LIMITED, priority 2014, dated 2018) can be followed below.

Assay [1] addresses T1, RORγt (Homo sapiens, UniProt P51449).
T1 sequence (P51449 1-497 isoform P51449-2): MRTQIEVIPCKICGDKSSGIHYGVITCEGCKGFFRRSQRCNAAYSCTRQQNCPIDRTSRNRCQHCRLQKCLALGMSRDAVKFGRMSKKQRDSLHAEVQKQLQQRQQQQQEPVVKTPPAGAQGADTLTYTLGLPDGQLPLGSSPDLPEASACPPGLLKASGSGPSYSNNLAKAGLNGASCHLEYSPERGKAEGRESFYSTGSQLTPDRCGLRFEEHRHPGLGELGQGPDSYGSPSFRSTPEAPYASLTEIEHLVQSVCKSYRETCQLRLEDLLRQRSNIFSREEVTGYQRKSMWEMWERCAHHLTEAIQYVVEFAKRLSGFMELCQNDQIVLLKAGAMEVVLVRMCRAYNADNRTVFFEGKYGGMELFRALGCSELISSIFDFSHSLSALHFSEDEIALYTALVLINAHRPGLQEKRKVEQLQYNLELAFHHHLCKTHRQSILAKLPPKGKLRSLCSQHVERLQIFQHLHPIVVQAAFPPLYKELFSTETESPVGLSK
Put plainly: RORγt binding test using fluorescent-labeled synthetic ligand (TR-FRET). Particulars: for inhibition at 1 µM: test compound 1 μM, read-out: binding inhibitory rate (%) of fluorescent-labeled synthetic ligand to RORγt at test compound 1 μM. On the procedure: RORγt Binding Test Using Fluorescent-Labeled Synthetic Ligand
The binding activity of the test compound to RORγt was measured by a time resolved fluorescence resonance energy transfer (TR-FRET) utilizing histidine-tagged RORγt, fluorescent-labeled synthetic ligand, and terbium-labeled anti-histidine tag antibody (Invitrogen). First, a test compound diluted with an assay buffer (20 mM Tris-HCl (pH 7.5), 100 mM NaCl, 1 mM DTT, 0.1% BSA) was added to a 384 well plate by 3 μL. Then, RORγt diluted with an assay buffer to 240 nM was added by 3 μL, after which fluorescent-labeled synthetic ligand diluted with the assay buffer to 12 μM was added by 3 μL, and the mixture was stood at room temperature for 20 min. Thereafter, a terbium-labeled anti-histidine tag antibody diluted with the assay buffer to 8 nM was added by 3 μL. The mixture was stood at room temperature for 20 min, and fluorescence intensity (excitation wavelength 320 nm, fluorescence wavelength 520 nm, delay time 100 microseconds) was measured by Envision (PerkinElmer).
(In general: Time-resolved FRET reads energy transfer from a long-lived donor to a nearby acceptor.)

For assay [2], the target named is T1, RORγt. Put plainly: Cofactor recruitment test (Alpha Screen, biotinylated SRC-1 peptide). The class given is biochemical. Particulars: for inhibition at 1 µM: read-out: signal value inhibitory rate (%) at test compound 1 μM. The method, then:
Cofactor Recruitment Test
Cofactor recruitment test was performed by Alpha Screen (Histidine Detection Kit, PerkinElmer) method. First, a test compound was diluted with an assay buffer (50 mM Tris-HCl (pH 7.5), 50 mM KCl, 1 mM DTT, 0.1% BSA) and added to a 384 well plate by 5 μL. […] The mixture was stood in a dark place for 1 hr, and the signal value was measured by Envision (PerkinElmer).

Assay [3] concerns the target T1, RORγt. Description: Jurkat reporter test (human IL-17 ROR response element luciferase reporter, RORγt vector). The class given is cell-based. The note with it: Jurkat cells; for inhibition at 3 µM: test compound 3 μM, read-out: luminescence level inhibitory rate (%) at test compound 3 μM. The method, then:
The Jurkat cells used for the reporter test were cultured in a culture medium (RPMI (Invitrogen), 10% FCS (AusGeneX), 100 U/mL penicillin, 100 μg/mL streptomycin). On the day of the test, 4×10^7 cells were recovered by a centrifugal operation (1000 rpm, for 5 min) and suspended in PBS (phosphate buffered saline) (Invitrogen). Thereafter, the cells were recovered again by a centrifugal operation, and suspended in 2 mL of R buffer (NEON transfection kit, Invitrogen). […] Gene transfer was performed by Electroporation apparatus (NEON, Invitrogen) under the conditions of pulse voltage 1350 V, interval 10 milliseconds, number of times 3. The cells after gene transfer were suspended in 40 mL of a reaction medium (RPMI, 10% Lipid reduced FCS (HyClone), 10 mM HEPES (pH 7.5), 100 U/mL penicillin, 100 μg/mL streptomycin, 5 μM lovastatin), and plated in a 96 well plate by 90 μL. A test compound diluted with the reaction medium was added by 10 μL, and the cells were cultured overnight in an incubator. Bright-Glo (Promega) was added by 100 μL, and the mixture was stirred at room temperature for 10 min, and the luminescence level was measured by Envision (PerkinElmer).
On the technique in general: In a reporter assay the amount or activity of a reporter protein is the signal.

With `CC(C)n1c(=O)n(CC2CC2)c(=O)c2cc(NC(=O)N3CCC[C@@H](n4cnc5cc(C#N)ccc5c4=O)C3)c(F)cc21` [Example 324, (3R)-3-(7-cyano-4-oxoquinazoline-3(4H)-yl)-N-(3-(cyclopropylmethyl)-7-fluoro-1-isopropyl-2,4-dioxo-1,2,3,4-tetrahydroquinazolin-6-yl)piperidine-1-carboxamide], the inhibition at 1 µM on RORγt [1] was found to be 102%; at RORγt [2], 106%. At RORγt [3], the inhibition at 3 µM worked out at 103%.

For the compound `CC(C)n1c(=O)n(CC2CC2(F)F)c(=O)c2cc(NC(=O)N3CCOC(C(=O)Nc4cc(Cl)c(C#N)cc4F)C3)c(F)cc21` (mixture of isomers) [Example 348, (2R)—N^2-(5-chloro-4-cyano-2-fluorophenyl)-N^4-(3-((2,2-difluorocyclopropyl)methyl)-7-fluoro-1-isopropyl-2,4-dioxo-1,2,3,4-tetrahydroquinazolin-6-yl)morpholine-2,4-dicarboxamide (mixture of two stereoisomers)], the inhibition at 1 µM at RORγt [1] was 102%; on RORγt [2], 107%. Further, on RORγt [3], the inhibition at 3 µM was determined as 107%.

As to `CC(C)n1c(=O)n(CC2CC2)c(=O)c2cc(NC(=O)N3CCC[C@@H](NC(=O)c4ccc(CNC(=O)OC(C)(C)C)cc4)C3)c(F)cc21` [Example 319, tert-Butyl (4-(((3R)-1-((3-(cyclopropylmethyl)-7-fluoro-1-isopropyl-2,4-dioxo-1,2,3,4-tetrahydroquinazolin-6-yl)carbamoyl)piperidin-3-yl)carbamoyl)benzyl)carbamate], the inhibition at 1 µM at RORγt [1] was determined as 101%; at RORγt [2], 95%. The inhibition at 3 µM at RORγt [3] was 103%.

`CC(C)n1c(=O)n(CC2CC2)c(=O)c2cc(NC(=O)N3CCOC(C(=O)Nc4cc(F)c(C#N)cc4F)C3)ccc21` (stereo not drawn) [Example 135, N^2-(4-cyano-2,5-difluorophenyl)-N^4-(3-(cyclopropylmethyl)-1-isopropyl-2,4-dioxo-1,2,3,4-tetrahydroquinazolin-6-yl)morpholine-2,4-dicarboxamide]: the inhibition at 1 µM worked out at 102% on RORγt [1] and 113% at RORγt [2]. Moreover, the inhibition at 3 µM at RORγt [3] was 99%.

As to `CC(C)n1c(=O)n(CC2CC2)c(=O)c2cc(NC(=O)N3CCO[C@@H](C(=O)Nc4cnc(C#N)c(Cl)c4)C3)c(F)cc21` [Example 266, (2R)-N^2-(5-chloro-6-cyanopyridin-3-yl)-N^4-(3-(cyclopropylmethyl)-7-fluoro-1-isopropyl-2,4-dioxo-1,2,3,4-tetrahydroquinazolin-6-yl)morpholine-2,4-dicarboxamide], the inhibition at 1 µM is 102% on RORγt [1] and 108% at RORγt [2]. For the same compound, the inhibition at 3 µM at RORγt [3] was 103%.

For `CC(C)n1c(=O)n(CC2CC2)c(=O)c2cc(NC(=O)N3CCO[C@@H](C(=O)Nc4cc(Cl)c(C#N)cc4F)C3)c(F)cc21` [Example 347, (2R)—N^2-(5-chloro-4-cyano-2-fluorophenyl)-N^4-(3-(cyclopropylmethyl)-7-fluoro-1-isopropyl-2,4-dioxo-1,2,3,4-tetrahydroquinazolin-6-yl)morpholine-2,4-dicarboxamide], the inhibition at 1 µM turned out to be 102% on RORγt [1] and 107% on RORγt [2]. In addition, at RORγt [3], the inhibition at 3 µM came out at 107%.

For `CC(C)n1c(=O)n(CC2CC2)c(=O)c2cc(NC(=O)N3CCC[C@@H](NC(=O)c4ccc(C#N)s4)C3)c(F)cc21` [Example 292, (3R)-3-(((5-cyano-2-thienyl)carbonyl)amino)-N-(3-(cyclopropylmethyl)-7-fluoro-1-isopropyl-2,4-dioxo-1,2,3,4-tetrahydroquinazolin-6-yl)piperidine-1-carboxamide], the inhibition at 1 µM at RORγt [1] amounted to 102%; on RORγt [2], 112%. Moreover, the inhibition at 3 µM on RORγt [3] amounted to 101%.

As for `CC(C)n1c(=O)n(CC2CC2(F)F)c(=O)c2cc(NC(=O)N3CCO[C@@H](C(=O)Nc4ccc(C#N)c(Cl)c4)C3)c(F)cc21` (stereo partly drawn) [Example 331, (2R)—N^2-(3-chloro-4-cyanophenyl)-N^4-(3-((2,2-difluorocyclopropyl)methyl)-7-fluoro-1-isopropyl-2,4-dioxo-1,2,3,4-tetrahydroquinazolin-6-yl)morpholine-2,4-dicarboxamide], the inhibition at 1 µM at RORγt [1] came to 102%; at RORγt [2], 109%. In addition, the inhibition at 3 µM at RORγt [3] is 103%.

Take `CC(C)n1c(=O)n(CC2CC2(F)F)c(=O)c2cc(NC(=O)N3CCCC(n4cnc5cc(C#N)ccc5c4=O)C3)c(F)cc21` (single isomer, unassigned) [Example 367, (3R)-3-(7-cyano-4-oxoquinazoline-3(4H)-yl)-N-(3-(((1R or 1S)-2,2-difluorocyclopropyl)methyl)-7-fluoro-1-isopropyl-2,4-dioxo-1,2,3,4-tetrahydroquinazolin-6-yl)piperidine-1-carboxamide (one stereoisomer, quinazolinedione: derived from tR1)]: the results for the inhibition at 1 µM at RORγt [1] and at RORγt [2] were 102% and 105%, respectively. Moreover, the inhibition at 3 µM on RORγt [3] amounted to 110%.

`COC(=O)c1cccc(C(=O)NC2CCCN(C(=O)Nc3ccc4c(c3)c(=O)n(CC3CC3)c(=O)n4C(C)C)C2)c1` (stereo not drawn) [Example 113, methyl 3-((1-((3-(cyclopropylmethyl)-1-isopropyl-2,4-dioxo-1,2,3,4-tetrahydroquinazolin-6-yl)carbamoyl)piperidin-3-yl)carbamoyl)benzoate]: the results for the inhibition at 1 µM on RORγt [1] and on RORγt [2] were 102% and 109%, respectively. Also, at RORγt [3], the inhibition at 3 µM is 102%.

Take `CC(C)n1c(=O)n(CC2CC2)c(=O)c2cc(NC(=O)N3CCC[C@@H](NC(=O)c4cc(F)ccc4F)C3)c(F)cc21` [Example 287, (3R)-N-(3-(cyclopropylmethyl)-7-fluoro-1-isopropyl-2,4-dioxo-1,2,3,4-tetrahydroquinazolin-6-yl)-3-((2,5-difluorobenzoyl)amino)piperidine-1-carboxamide]: the values for the inhibition at 1 µM at RORγt [1] and at RORγt [2] were 102% and 111%, respectively. Further, the inhibition at 3 µM on RORγt [3] was 100%.

Take `CC(C)n1c(=O)n(CC2CC2(F)F)c(=O)c2cc(NC(=O)N3CCOC(C(=O)Nc4ccc(C#N)c(Cl)c4)C3)c(F)cc21` (single isomer, unassigned) [Example 368, (2R)—N^2-(3-chloro-4-cyanophenyl)-N^4-(3-(((1R or 1S)-2,2-difluorocyclopropyl)methyl)-7-fluoro-1-isopropyl-2,4-dioxo-1,2,3,4-tetrahydroquinazolin-6-yl)morpholine-2,4-dicarboxamide (one stereoisomer, quinazolinedione: derived from tR2)]: the “binding inhibitory rate (%) of fluorescent-labeled synthetic ligand to RORγt at test compound 1 μM” value at RORγt [1] is 102%. In addition, the “signal value inhibitory rate (%) at test compound 1 μM” value on RORγt [2] (test compound 1 μM) was 105%. Moreover, the “luminescence level inhibitory rate (%) at test compound 3 μM” value on RORγt [3] is 108%.

As to `Cc1ccc(C(=O)N[C@@H]2CCCN(C(=O)Nc3ccc4c(c3)c(=O)n(CC3CC3)c(=O)n4C(C)C)C2)s1` [Example 242, (3R)-N-(3-(cyclopropylmethyl)-1-isopropyl-2,4-dioxo-1,2,3,4-tetrahydroquinazolin-6-yl)-3-(((5-methyl-2-thienyl)carbonyl)amino)piperidine-1-carboxamide], the figures for the inhibition at 1 µM at RORγt [1] and on RORγt [2] were 102% and 105%, respectively. In addition, the inhibition at 3 µM on RORγt [3] turned out to be 103%.
